Experimental data as given in ChEMBL document CHEMBL5729355, “N/O-linked Degrons and Degronimers for protein degradation” (2022).

Target: Protein cereblon/DNA damage-binding protein 1 (Homo sapiens, UniProt Q96SW2)
Experiment: Fluorescence Polarization (FP) Assay for Screening Compound Ligand Binders of CRBN-DDM: Measuring compound ligand binding to CRBN-DDB1 was carried out using an established sensitive and quantitative in vitro fluorescence polarization (FP) based binding assay. (See, I. J. Enyedy et al, J. Med. Chem., 44: 3134324, 2001). Compounds were dispensed from serially diluted DMSO stock into black 384-well compatible fluorescence polarization plates using an Echo acoustic dispenser. Compound binding to CRBN-DDB1 was measured by displacement of either a (−)-Thalidomide-Alexa Fluor® or Pornalidomide-fluorescein conjugated probe dye. A 20 μL mixture containing 400 nM CRBN-DDB1 and 5 nM probe dye in 50 mM Hepes, pH 7.4, 200 mM NaCl, 1% DMSO and 0.05% pluronic acid-127 acid was added to wells containing compound and incubated at room temperature for 60 min. Matching control wells excluding CRBN-DDB1 were used to correct for background fluorescence. Plates were read on an Envision plate reader with appropriate FP filter sets. […]
Format: protein assay

Protein cereblon/DNA damage-binding protein 1, sequence (Q96SW2 whole entry): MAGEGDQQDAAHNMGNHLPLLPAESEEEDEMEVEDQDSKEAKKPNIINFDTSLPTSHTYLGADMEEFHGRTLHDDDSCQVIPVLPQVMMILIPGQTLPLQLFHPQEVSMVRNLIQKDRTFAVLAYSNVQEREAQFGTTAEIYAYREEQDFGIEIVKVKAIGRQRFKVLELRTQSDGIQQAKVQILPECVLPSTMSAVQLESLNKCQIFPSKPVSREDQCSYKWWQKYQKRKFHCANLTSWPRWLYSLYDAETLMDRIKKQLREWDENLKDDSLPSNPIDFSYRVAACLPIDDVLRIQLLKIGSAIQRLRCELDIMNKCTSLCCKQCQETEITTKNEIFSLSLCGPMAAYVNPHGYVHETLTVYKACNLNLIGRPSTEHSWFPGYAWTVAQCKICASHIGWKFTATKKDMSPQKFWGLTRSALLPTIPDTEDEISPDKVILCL
Protein cereblon/DNA damage-binding protein 1, sequence (Q16531 whole entry, further chain): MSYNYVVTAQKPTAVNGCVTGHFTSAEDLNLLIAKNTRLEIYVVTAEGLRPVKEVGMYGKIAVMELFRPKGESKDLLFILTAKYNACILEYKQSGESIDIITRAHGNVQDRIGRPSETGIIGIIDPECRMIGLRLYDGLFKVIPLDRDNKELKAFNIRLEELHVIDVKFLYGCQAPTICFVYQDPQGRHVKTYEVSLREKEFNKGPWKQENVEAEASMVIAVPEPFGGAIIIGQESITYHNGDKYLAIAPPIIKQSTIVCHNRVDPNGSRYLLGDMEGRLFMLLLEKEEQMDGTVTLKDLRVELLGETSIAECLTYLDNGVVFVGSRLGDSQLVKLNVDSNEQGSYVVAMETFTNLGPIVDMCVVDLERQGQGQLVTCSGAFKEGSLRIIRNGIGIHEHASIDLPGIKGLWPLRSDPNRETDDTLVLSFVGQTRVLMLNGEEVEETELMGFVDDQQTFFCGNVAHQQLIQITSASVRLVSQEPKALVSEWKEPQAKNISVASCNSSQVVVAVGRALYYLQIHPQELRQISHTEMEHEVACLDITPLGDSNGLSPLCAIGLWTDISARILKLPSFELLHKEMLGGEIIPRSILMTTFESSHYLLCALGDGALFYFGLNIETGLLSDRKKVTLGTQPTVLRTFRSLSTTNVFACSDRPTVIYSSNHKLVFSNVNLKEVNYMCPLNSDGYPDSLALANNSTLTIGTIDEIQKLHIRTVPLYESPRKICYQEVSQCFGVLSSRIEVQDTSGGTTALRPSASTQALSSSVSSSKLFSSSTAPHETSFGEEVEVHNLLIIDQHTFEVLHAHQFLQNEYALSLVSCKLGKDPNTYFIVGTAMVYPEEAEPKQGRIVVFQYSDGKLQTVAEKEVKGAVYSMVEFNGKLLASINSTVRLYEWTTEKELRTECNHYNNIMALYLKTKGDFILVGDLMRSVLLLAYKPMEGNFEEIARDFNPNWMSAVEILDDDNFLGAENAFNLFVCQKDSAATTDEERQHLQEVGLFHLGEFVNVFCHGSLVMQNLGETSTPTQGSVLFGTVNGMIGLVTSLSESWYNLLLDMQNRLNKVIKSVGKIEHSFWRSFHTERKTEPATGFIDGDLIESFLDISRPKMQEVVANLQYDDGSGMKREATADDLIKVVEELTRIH

Cn1c(NC2CCC(=O)NC2=O)nc2ccccc21 (stereo unspecified) was tested, and the Kd was greater than 100 µM.
